Tests used:
[1] = target: T1, ATP-binding cassette sub-family C member 2 (Rattus norvegicus, UniProt Q63120); experiment: TP_TRANSPORTER: biliary excretion in EHBR rat; assay type: functional, organism-based, Bile; settings: in vivo
[2] = target: T1, ATP-binding cassette sub-family C member 2; experiment: TP_TRANSPORTER: biliary excretion in SD rat; assay type: functional, organism-based, Sprague-Dawley, Bile; settings: in vivo

T1 sequence (Q63120 whole entry): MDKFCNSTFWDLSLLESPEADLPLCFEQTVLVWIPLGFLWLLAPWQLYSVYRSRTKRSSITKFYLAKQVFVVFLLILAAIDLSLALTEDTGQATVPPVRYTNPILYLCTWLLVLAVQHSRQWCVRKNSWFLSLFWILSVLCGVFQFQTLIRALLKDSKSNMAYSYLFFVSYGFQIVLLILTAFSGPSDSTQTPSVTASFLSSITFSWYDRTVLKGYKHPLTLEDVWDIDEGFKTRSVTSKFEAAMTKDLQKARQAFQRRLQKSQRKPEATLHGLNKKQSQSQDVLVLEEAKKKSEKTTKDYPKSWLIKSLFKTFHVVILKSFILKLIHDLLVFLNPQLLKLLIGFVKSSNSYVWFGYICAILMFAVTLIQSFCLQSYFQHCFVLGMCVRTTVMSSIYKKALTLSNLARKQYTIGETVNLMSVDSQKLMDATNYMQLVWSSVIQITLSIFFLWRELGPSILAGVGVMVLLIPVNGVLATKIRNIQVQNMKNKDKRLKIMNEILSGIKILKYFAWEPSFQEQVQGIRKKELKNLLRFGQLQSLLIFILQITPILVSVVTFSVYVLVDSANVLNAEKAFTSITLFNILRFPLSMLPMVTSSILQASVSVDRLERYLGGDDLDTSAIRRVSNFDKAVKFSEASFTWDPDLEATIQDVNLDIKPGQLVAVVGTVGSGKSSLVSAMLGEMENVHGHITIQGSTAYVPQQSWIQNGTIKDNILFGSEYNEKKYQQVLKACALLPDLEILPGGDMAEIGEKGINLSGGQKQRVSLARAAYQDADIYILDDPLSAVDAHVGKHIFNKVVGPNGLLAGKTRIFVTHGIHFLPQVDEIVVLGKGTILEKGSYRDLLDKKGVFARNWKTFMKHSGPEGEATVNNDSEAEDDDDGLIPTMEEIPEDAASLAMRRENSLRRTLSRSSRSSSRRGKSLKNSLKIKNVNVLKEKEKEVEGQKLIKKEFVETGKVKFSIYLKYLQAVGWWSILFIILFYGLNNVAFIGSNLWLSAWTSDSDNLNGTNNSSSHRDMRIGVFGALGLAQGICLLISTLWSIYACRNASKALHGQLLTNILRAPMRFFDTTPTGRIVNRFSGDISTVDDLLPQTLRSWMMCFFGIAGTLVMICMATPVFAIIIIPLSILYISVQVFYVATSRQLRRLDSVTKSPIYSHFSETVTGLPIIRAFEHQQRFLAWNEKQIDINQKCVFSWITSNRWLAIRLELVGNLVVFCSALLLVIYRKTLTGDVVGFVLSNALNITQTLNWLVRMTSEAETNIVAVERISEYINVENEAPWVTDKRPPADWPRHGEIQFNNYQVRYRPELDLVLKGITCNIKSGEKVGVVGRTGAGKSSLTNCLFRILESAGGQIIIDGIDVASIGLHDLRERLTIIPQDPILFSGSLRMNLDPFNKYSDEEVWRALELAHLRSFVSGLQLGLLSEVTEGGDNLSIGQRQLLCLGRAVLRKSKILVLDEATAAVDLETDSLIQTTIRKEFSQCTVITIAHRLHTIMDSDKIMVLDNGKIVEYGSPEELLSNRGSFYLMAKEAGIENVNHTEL

| Activity [1] | Activity [2] | Structure (SMILES) |
| --- | --- | --- |
| substrate [+] | substrate [+] | CO/N=C(\C(=O)N[C@@H]1C(=O)N2C(C(=O)O)=C(CSc3nc(C)c(CC(=O)O)s3)CS[C@H]12)c1csc(N)n1 [CEFODIZIME] |
| substrate [+] | substrate [+] | CC1(C)C(/C=C/C=C/C=C/C=C2/N(CCCCS(=O)(=O)[O-])c3ccc4ccccc4c3C2(C)C)=[N+](CCCCS(=O)(=O)[O-])c2ccc3ccccc3c21.[Na+] [INDOCYANINE GREEN] |
| substrate [+] | substrate [+] | O=C1OC(c2ccc(OS(=O)(=O)O)cc2)(c2ccc(OS(=O)(=O)O)cc2)c2c(Br)ccc(Br)c21 [DIBROMOSULFOPHTHALEIN] |

Source: ChEMBL document CHEMBL2074296, “Kinetic analysis of hepatobiliary transport of organic anions in Eisai hyperbilirubinemic mutant rats” (J Pharmacol Exp Ther, 1993)
